# Values quoted from earlier work, collected in patent US5356784A, “Determination of concentration by affinity titration” (Terrapin Technologies, Inc., priority 1993, dated 1994).
# Tested on: Concanavalin A (ConA)
# Settings: ConA with bacterial dextran from strain B-1355-5; materials described by Scott et al. PNAS 1992
row,Compound,inhibition of precipitation of ConA-dextran
1,VGRAFS: peptide identified by screening a phage epitope display library; inhibits Con A-dextran precipitation,inhibit
2,"CO[C@H]1O[C@H](CO)[C@@H](O)[C@H](O)[C@@H]1O [MeMan, methyl-alpha-Man]",inhibited in a dosedependent manner
3,MYWYPY: peptide identified by screening a phage epitope display library; inhibits Con A-dextran precipitation,inhibit
